The values below come from PubChem BioAssay AID1963966 (Molecular Pharmacology Branch, DTP, NCI, 2024).

For this assay, the system named is 935938-334-R-J1-PDC spheroids with HUVEC/MSC, viability. The assay is described as follows: Anticancer human tumor 935938-334-R-J1-PDC patient-derived small intestine adenocarcinoma cell line growth inhibition [PI3K]. The note with it: for viability, T/C: stronger effect = lower value. A digest of the protocol:
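Targeted small molecules plus PI3K inhibitors, half-log dose series from Cmax (default top 10 microM), were applied to heterotypic spheroids of cancer cells with HUVEC and MSCs. Viability indicated growth inhibition.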

A value given as a limit tells only on which side of the number the result lay.
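Further: compound exposure lasted seven days before viability was read.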
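Wherever viability, T/C is given: percent of vehicle DMSO treated spheroid viability so 100% = untreated.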

Turning to `CC(Nc1ccc2c(c1)OCCn1cc(N3C(=O)OCC3C(F)F)nc1-2)C(N)=O` (stereo unspecified), the viability, T/C (compound 0.0316 µM) is 91% [middle of 8 runs]. Also, under “compound alone, run of 04/24/2023”, the IC50 is over 1 µM.
In the case of `Cc1nc(NC(=O)N2CCCC2C(N)=O)sc1-c1ccnc(C(C)(C)C(F)(F)F)c1` (stereo unspecified), the viability, T/C was 72.2% [middle of 8 runs] (compound 1 µM) and 48.2% [middle of 8 runs] (compound 10 µM).
Turning to `C=CC(=O)N1CCN(c2nc(=O)n(-c3c(C)ccnc3C(C)C)c3nc(-c4c(O)cccc4F)c(F)cc23)C(C)C1` (stereo unspecified) + CC(Nc1ncnc2nc[nH]c12)c1cc2cccc(Cl)c2c(=O)n1-c1ccccc1, the IC50 was over 10 µM (curve of first compound, second compound 0.0316 µM); over 10 µM (curve of first compound, second compound 0.1 µM); over 10 µM (curve of first compound, second compound 0.316 µM); over 10 µM (curve of first compound, second compound 1 µM); over 10 µM (curve of first compound, second compound 3.16 µM); over 10 µM (curve of first compound, second compound 10 µM). Also, the viability, T/C is, setting by setting: (second compound 0.0316 µM, first compound 0.0316 µM) 94.2%; (second compound 0.0316 µM, first compound 0.1 µM) 103%; (second compound 0.0316 µM, first compound 0.316 µM) 96.4%; (second compound 0.0316 µM, first compound 1 µM) 84.3%; (second compound 0.0316 µM, first compound 3.16 µM) 83.9%; (second compound 0.0316 µM, first compound 10 µM) 95.8%. Further, the viability, T/C is, setting by setting: (second compound 0.1 µM, first compound 0.0316 µM) 105%; (second compound 0.1 µM, first compound 0.1 µM) 123%; (second compound 0.1 µM, first compound 0.316 µM) 96.8%; (second compound 0.1 µM, first compound 1 µM) 120%; (second compound 0.1 µM, first compound 3.16 µM) 114%; (second compound 0.1 µM, first compound 10 µM) 108%. Also, the viability, T/C runs as follows: (second compound 0.316 µM, first compound 0.0316 µM) 86%; (second compound 0.316 µM, first compound 0.1 µM) 88.7%; (second compound 0.316 µM, first compound 0.316 µM) 88.3%; (second compound 0.316 µM, first compound 1 µM) 95.7%; (second compound 0.316 µM, first compound 3.16 µM) 98.2%; (second compound 0.316 µM, first compound 10 µM) 87.6%. Besides, the viability, T/C (second compound 1 µM, first compound 0.0316 µM) was 96.7%; the viability, T/C (second compound 1 µM, first compound 0.1 µM) was 106%; the viability, T/C (second compound 1 µM, first compound 0.316 µM) is 64%; the viability, T/C (second compound 1 µM, first compound 1 µM) was 94.8%; the viability, T/C (second compound 1 µM, first compound 3.16 µM) is 73.4%; the viability, T/C (second compound 1 µM, first compound 10 µM) is 68.9%. Moreover, the viability, T/C was 71.3% (second compound 3.16 µM, first compound 0.0316 µM); 84.3% (second compound 3.16 µM, first compound 0.1 µM); 89.5% (second compound 3.16 µM, first compound 0.316 µM); 85.1% (second compound 3.16 µM, first compound 1 µM); 95% (second compound 3.16 µM, first compound 3.16 µM); 72.2% (second compound 3.16 µM, first compound 10 µM). Further, the viability, T/C (second compound 10 µM, first compound 0.0316 µM) is 62.1%; the viability, T/C (second compound 10 µM, first compound 0.1 µM) is 99.5%; the viability, T/C (second compound 10 µM, first compound 0.316 µM) was 96.8%; the viability, T/C (second compound 10 µM, first compound 1 µM) was 84.5%; the viability, T/C (second compound 10 µM, first compound 3.16 µM) is 75.5%; the viability, T/C (second compound 10 µM, first compound 10 µM) was 68.8%.
